Assay in all cases: relative viability (nuclei count vs DMSO), 5 days (fraction); higher = more cells survive
Compound in the experiment “CUDC-101 + AZD7762”: C#Cc1cccc(Nc2ncnc3cc(OC)c(OCCCCCCC(=O)NO)cc23)c1 [CUDC-101] + NC(=O)Nc1cc(-c2cccc(F)c2)sc1C(=O)N[C@H]1CCCNC1 [AZD7762] (partner 0.2 µM)
The procedure, abridged: (§1)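 Lung cancer cell lines in 1536-well plates got either a single drug or a fixed anchor-drug dose together with five library-drug doses (not always all listed) in √10 steps, by pin tool, on the day after seeding. Nuclei were counted after 5 days, and relative viability is the treated-to-vehicle ratio of nuclei counts. Values are medians of duplicate plates.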

Compound in the experiment “NVP-TAE684 + Phenformin”: COc1cc(N2CCC(N3CCN(C)CC3)CC2)ccc1Nc1ncc(Cl)c(Nc2ccccc2S(=O)(=O)C(C)C)n1 [NVP-TAE684] + N=C(N)NC(=N)NCCc1ccccc1 [Phenformin] (partner 250 µM)
An outline of the steps: as §1

Compound in the experiment “Vandetanib + Foretinib”: COc1cc2/c(=N/c3ccc(Br)cc3F)nc[nH]c2cc1OCC1CCN(C)CC1 [Vandetanib] + COc1cc2c(Oc3ccc(NC(=O)C4(C(=O)Nc5ccc(F)cc5)CC4)cc3F)ccnc2cc1OCCCN1CCOCC1 [Foretinib] (partner 0.25 µM)
The procedure, abridged: as §1

Compound in the experiment “Vandetanib + Olaparib”: COc1cc2/c(=N/c3ccc(Br)cc3F)nc[nH]c2cc1OCC1CCN(C)CC1 [Vandetanib] + O=C(c1cc(Cc2n[nH]c(=O)c3ccccc23)ccc1F)N1CCN(C(=O)C2CC2)CC1 [Olaparib] (partner 8 µM)
An outline of the steps:
as §1

In the case of NCI-H1793, the relative viability with CUDC-101 + AZD7762 (first compound 0.01 µM) was 0.406; in the experiment with CUDC-101 + AZD7762 (first compound 0.03162 µM), 0.31; in the experiment with CUDC-101 + AZD7762 (first compound 0.1 µM) it was 0.477; in the experiment with CUDC-101 + AZD7762 (first compound 0.3162 µM) it was 0.648; with CUDC-101 + AZD7762 (first compound 1 µM), 0.211; with NVP-TAE684 + Phenformin (first compound 0.2 µM) it was 0.35. Moreover, the relative viability with NVP-TAE684 + Phenformin (first compound 0.6325 µM) came out at 0.371; in the experiment with NVP-TAE684 + Phenformin (first compound 2 µM), 0.26; with Vandetanib + Foretinib (first compound 0.02 µM), 0.605; with Vandetanib + Foretinib (first compound 0.06325 µM) it was 0.606; with Vandetanib + Foretinib (first compound 0.2 µM), 0.406; in the experiment with Vandetanib + Foretinib (first compound 0.6325 µM), 0.648. The relative viability in the experiment with Vandetanib + Foretinib (first compound 2 µM) was found to be 0.41; in the experiment with Vandetanib + Olaparib (first compound 0.02 µM), 0.86; in the experiment with Vandetanib + Olaparib (first compound 0.06325 µM), 0.803; with Vandetanib + Olaparib (first compound 0.2 µM), 0.74; with Vandetanib + Olaparib (first compound 0.6325 µM), 0.658; with Vandetanib + Olaparib (first compound 2 µM), 0.577.

As for NCI-H2085, the relative viability with CUDC-101 + AZD7762 (first compound 0.01 µM) came out at 0.956; in the experiment with CUDC-101 + AZD7762 (first compound 0.03162 µM) it was 1.01; with CUDC-101 + AZD7762 (first compound 0.1 µM), 1.06; with CUDC-101 + AZD7762 (first compound 0.3162 µM), 0.922; in the experiment with CUDC-101 + AZD7762 (first compound 1 µM) it was 0.877; with NVP-TAE684 + Phenformin (first compound 0.2 µM), 0.753. In addition, the relative viability is 0.694 in the experiment with NVP-TAE684 + Phenformin (first compound 0.6325 µM); 0.694 with NVP-TAE684 + Phenformin (first compound 2 µM); 0.935 in the experiment with Vandetanib + Foretinib (first compound 0.02 µM); 0.852 in the experiment with Vandetanib + Foretinib (first compound 0.06325 µM); 0.351 in the experiment with Vandetanib + Foretinib (first compound 0.2 µM); 0.993 with Vandetanib + Foretinib (first compound 0.6325 µM). Besides, the relative viability with Vandetanib + Foretinib (first compound 2 µM) is 0.836; with Vandetanib + Olaparib (first compound 0.02 µM), 0.77; with Vandetanib + Olaparib (first compound 0.06325 µM), 0.72; with Vandetanib + Olaparib (first compound 0.2 µM), 0.808; in the experiment with Vandetanib + Olaparib (first compound 0.6325 µM) it was 0.769; with Vandetanib + Olaparib (first compound 2 µM) it was 0.712.

For the cell line NCI-H358, the relative viability in the experiment with CUDC-101 + AZD7762 (first compound 0.01 µM) stood at 0.565; in the experiment with CUDC-101 + AZD7762 (first compound 0.03162 µM), 0.493; with CUDC-101 + AZD7762 (first compound 0.1 µM) it was 0.518; in the experiment with CUDC-101 + AZD7762 (first compound 0.3162 µM) it was 0.261; in the experiment with CUDC-101 + AZD7762 (first compound 1 µM) it was 0.237; with NVP-TAE684 + Phenformin (first compound 0.2 µM) it was 0.285. For the same cell line, the relative viability with NVP-TAE684 + Phenformin (first compound 0.6325 µM) came out at 0.226; in the experiment with NVP-TAE684 + Phenformin (first compound 2 µM), 0.0829; with Vandetanib + Foretinib (first compound 0.02 µM), 0.657; with Vandetanib + Foretinib (first compound 0.06325 µM), 0.716; with Vandetanib + Foretinib (first compound 0.2 µM), 0.649; with Vandetanib + Foretinib (first compound 0.6325 µM), 0.646. The relative viability with Vandetanib + Foretinib (first compound 2 µM) came out at 0.332; in the experiment with Vandetanib + Olaparib (first compound 0.02 µM) it was 0.552; in the experiment with Vandetanib + Olaparib (first compound 0.06325 µM), 0.527; with Vandetanib + Olaparib (first compound 0.2 µM), 0.646; with Vandetanib + Olaparib (first compound 0.6325 µM), 0.472; in the experiment with Vandetanib + Olaparib (first compound 2 µM), 0.319.

Consider SW 900, for which the relative viability stood at 0.57 in the experiment with CUDC-101 + AZD7762 (first compound 0.01 µM); 0.476 with CUDC-101 + AZD7762 (first compound 0.03162 µM); 0.568 in the experiment with CUDC-101 + AZD7762 (first compound 0.1 µM); 0.716 with CUDC-101 + AZD7762 (first compound 0.3162 µM); 0.555 in the experiment with CUDC-101 + AZD7762 (first compound 1 µM); 0.592 with NVP-TAE684 + Phenformin (first compound 0.2 µM). Besides, the relative viability with NVP-TAE684 + Phenformin (first compound 0.6325 µM) turned out to be 0.474; with NVP-TAE684 + Phenformin (first compound 2 µM), 0.385; with Vandetanib + Foretinib (first compound 0.02 µM), 0.927; in the experiment with Vandetanib + Foretinib (first compound 0.06325 µM), 0.779; with Vandetanib + Foretinib (first compound 0.2 µM), 0.143; with Vandetanib + Foretinib (first compound 0.6325 µM), 1. The relative viability was 0.917 in the experiment with Vandetanib + Foretinib (first compound 2 µM); 0.804 with Vandetanib + Olaparib (first compound 0.02 µM); 0.784 with Vandetanib + Olaparib (first compound 0.06325 µM); 0.88 with Vandetanib + Olaparib (first compound 0.6325 µM); 0.815 with Vandetanib + Olaparib (first compound 2 µM).

As to NCI-H3122, the relative viability with CUDC-101 + AZD7762 (first compound 0.01 µM) came to 0.998; with CUDC-101 + AZD7762 (first compound 0.03162 µM) it was 0.951; with CUDC-101 + AZD7762 (first compound 0.1 µM), 1; in the experiment with CUDC-101 + AZD7762 (first compound 0.3162 µM) it was 1.04; with CUDC-101 + AZD7762 (first compound 1 µM), 1.06; in the experiment with NVP-TAE684 + Phenformin (first compound 0.2 µM), 0.156. Also, the relative viability in the experiment with NVP-TAE684 + Phenformin (first compound 0.6325 µM) was determined as 0.131; with NVP-TAE684 + Phenformin (first compound 2 µM), 0.125; with Vandetanib + Foretinib (first compound 0.02 µM), 0.984; with Vandetanib + Foretinib (first compound 0.06325 µM) it was 0.972; in the experiment with Vandetanib + Foretinib (first compound 0.2 µM) it was 0.888; with Vandetanib + Foretinib (first compound 0.6325 µM), 0.944. Besides, the relative viability with Vandetanib + Foretinib (first compound 2 µM) came out at 0.94; in the experiment with Vandetanib + Olaparib (first compound 0.02 µM) it was 0.617; in the experiment with Vandetanib + Olaparib (first compound 0.06325 µM), 0.576; with Vandetanib + Olaparib (first compound 0.2 µM) it was 0.232; with Vandetanib + Olaparib (first compound 0.6325 µM), 0.567; with Vandetanib + Olaparib (first compound 2 µM), 0.621.

Turning to NCI-H441, the relative viability came out at 1.36 in the experiment with CUDC-101 + AZD7762 (first compound 0.01 µM); 1.08 with CUDC-101 + AZD7762 (first compound 0.03162 µM); 1.34 with CUDC-101 + AZD7762 (first compound 0.1 µM); 1.37 with CUDC-101 + AZD7762 (first compound 0.3162 µM); 1.07 with CUDC-101 + AZD7762 (first compound 1 µM); 0.574 with NVP-TAE684 + Phenformin (first compound 0.2 µM). In addition, the relative viability with NVP-TAE684 + Phenformin (first compound 0.6325 µM) was determined as 0.755; with NVP-TAE684 + Phenformin (first compound 2 µM), 0.258; with Vandetanib + Foretinib (first compound 0.02 µM), 1.05; in the experiment with Vandetanib + Foretinib (first compound 0.06325 µM), 0.816; in the experiment with Vandetanib + Foretinib (first compound 0.2 µM) it was 0.264; with Vandetanib + Foretinib (first compound 0.6325 µM) it was 0.978. Further, the relative viability with Vandetanib + Foretinib (first compound 2 µM) was 1.01; with Vandetanib + Olaparib (first compound 0.02 µM) it was 0.498; with Vandetanib + Olaparib (first compound 0.06325 µM), 0.576; with Vandetanib + Olaparib (first compound 0.2 µM) it was 0.646; in the experiment with Vandetanib + Olaparib (first compound 0.6325 µM), 0.658; with Vandetanib + Olaparib (first compound 2 µM) it was 0.616.

The record behind these values is the supplement of paper PMC10307832.
